Reference: patent publication US12077503B2, “Substituted cyclic amides and their use as herbicides” (FMC CORPORATION, priority 2015, dated 2024)

Legend:
Format in all cases: in vivo
[1] = system: Kochia (Kochia scoparia); test: Test A preemergence
Outline: (§1)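 Compounds were formulated in a non-phytotoxic solvent mixture with surfactant and applied as a preemergence directed soil spray after seeding, or sprayed postemergence over plants 2 to 10 cm tall at the one- to two-leaf stage. Evaluation after about 10 d compared treated with untreated controls, using a scale from 0 (no effect) to 100 (complete control).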

[2] = system: barnyardgrass (Echinochloa crus-galli); test: Test A preemergence
Outline: as §1

[3] = system: giant foxtail (Setaria faberii); test: Test A preemergence
Outline: as §1

[4] = system: pigweed (Amaranthus retroflexus); test: Test A preemergence
[5] = system: ragweed (common ragweed, Ambrosia elatior); test: Test A preemergence
Outline: as §1

[6] = system: ryegrass, Italian (Italian ryegrass, Lolium multiflorum); test: Test A preemergence
Outline: as §1

[7] = system: Galium (catchweed bedstraw, Galium aparine); test: Test A postemergence; details: for Galium plant response rating: visual injury rating on 0 to 100 scale (0 no effect, 100 complete control), approx. 10 d
Outline: as §1

[8] = system: Kochia (Kochia scoparia); test: Test A postemergence; details: for Kochia plant response rating: visual injury rating on 0 to 100 scale (0 no effect, 100 complete control), approx. 10 d
Outline: as §1

[9] = system: barnyardgrass (Echinochloa crus-galli); test: Test A postemergence
Outline: as §1

[10] = system: blackgrass (Alopecurus myosuroides); test: Test A postemergence
Outline: as §1

[11] = system: corn (Zea mays); test: Test A postemergence; details: for Corn plant response rating: visual injury rating on 0 to 100 scale (0 no effect, 100 complete control), approx. 10 d
Outline: as §1

[12] = system: giant foxtail (Setaria faberii); test: Test A postemergence; details: for Foxtail, Giant plant response rating: visual injury rating on 0 to 100 scale (0 no effect, 100 complete control), approx. 10 d
Outline: as §1

[13] = system: pigweed (Amaranthus retroflexus); test: Test A postemergence; details: for Pigweed plant response rating: visual injury rating on 0 to 100 scale (0 no effect, 100 complete control), approx. 10 d
Outline: as §1

[14] = system: ragweed (common ragweed, Ambrosia elatior); test: Test A postemergence; details: for Ragweed plant response rating: visual injury rating on 0 to 100 scale (0 no effect, 100 complete control), approx. 10 d
Outline: as §1

[15] = system: ryegrass, Italian (Italian ryegrass, Lolium multiflorum); test: Test A postemergence; details: for Ryegrass, Italian plant response rating: visual injury rating on 0 to 100 scale (0 no effect, 100 complete control), approx. 10 d
Outline: as §1

[16] = system: wheat (Triticum aestivum); test: Test A postemergence; details: for Wheat plant response rating: visual injury rating on 0 to 100 scale (0 no effect, 100 complete control), approx. 10 d
Outline: as §1

[17] = system: barnyardgrass (Echinochloa crus-galli); test: Test B flooded paddy test; details: Flood, 0 to 100 scale where 0 is no effect and 100 is complete control, 13 to 15 d
Outline: (§2)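 2-leaf plants; pots flooded 3 cm over soil; cpd added to paddy water; depth held; greenhouse 13–15 d; visual rating vs controls, 0 = no effect, 100 = complete control.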

[18] = system: ducksalad (Heteranthera limosa); test: Test B flooded paddy test; details: Flood, 0 to 100 scale where 0 is no effect and 100 is complete control, 13 to 15 d
Outline: as §2

[19] = system: rice (Oryra sativa); test: Test B flooded paddy test; details: Flood, 0 to 100 scale where 0 is no effect and 100 is complete control, 13 to 15 d
Outline: as §2

[20] = system: sedge, umbrella (small-flower umbrella sedge, Cyperus difformis); test: Test B flooded paddy test; details: Flood, 0 to 100 scale where 0 is no effect and 100 is complete control, 13 to 15 d
Outline: as §2

[21] = 125 g ai/ha, Preemergence, visual injury after approximately 10 d, 0 to 100 scale where 0 is no effect and 100 is complete control
[22] = Preemergence, 500 g ai/ha, visual injury approx. 10 d
[23] = Postemergence, 500 g ai/ha, 0 to 100 scale where 0 is no effect and 100 is complete control
[24] = 125 g ai/ha, postemergence, visual injury rating on 0 to 100 scale (0 no effect, 100 complete control), approx. 10 d
[25] = 125 g ai/ha, preemergence, 0 to 100 scale (0 no effect, 100 complete control)
[26] = Preemergence, 500 g ai/ha, 0 is no effect, 100 is complete control
[27] = 500 g ai/ha, postemergence, 0 to 100 scale, 0 no effect, 100 complete control
[28] = Postemergence, 125 g ai/ha, visual injury, 0 to 100 scale (0 no effect, 100 complete control), approx. 10 d
[29] = 500 g ai/ha, preemergence, 0 to 100 scale, 0 = no effect, 100 = complete control
[30] = 125 g ai/ha, postemergence, visual rating after approx. 10 d, 0 to 100 scale (0 no effect, 100 complete control)

Compound: Cc1ccc(C2CNC(=O)C2C(=O)Nc2ccccc2F)c(F)c1 (racemic) [Compound 509]
- Plant response rating, Kochia [1, 21]: 0
- Kochia plant response rating (0 to 100 scale, 0 is no effect, 100 is complete control) [1, 22]: 0
- Plant response rating, Barnyardgrass [2, 21]: 60
- Barnyardgrass plant response rating (0 to 100 scale, 0 is no effect, 100 is complete control) [2, 22]: 90
- Plant response rating, Foxtail, Giant [3, 21]: 40
- Foxtail, Giant plant response rating (0 to 100 scale, 0 is no effect, 100 is complete control) [3, 22]: 70
- Plant response rating, Pigweed [4, 21]: 0
- Pigweed plant response rating (0 to 100 scale, 0 is no effect, 100 is complete control) [4, 22]: 0
- Plant response rating, Ragweed [5, 21]: 0
- Ragweed plant response rating (0 to 100 scale, 0 is no effect, 100 is complete control) [5, 22]: 0
- Plant response rating, Ryegrass, Italian [6, 21]: 0
- Ryegrass, Italian plant response rating (0 to 100 scale, 0 is no effect, 100 is complete control) [6, 22]: 0
- Galium plant response rating ([7]; 125 g ai/ha, postemergence): 0
- Plant response rating, Galium [7, 23]: 40
- Kochia plant response rating ([8]; 125 g ai/ha, postemergence): 0
- Plant response rating, Kochia [8, 23]: 20
- Barnyardgrass plant response rating [9, 24]: 60
- Plant response rating, Barnyardgrass [9, 23]: 90
- Blackgrass plant response rating [10, 24]: 0
- Plant response rating, Blackgrass [10, 23]: 20
- Corn plant response rating ([11]; 125 g ai/ha, postemergence): 0
- Plant response rating, Corn [11, 23]: 0
- Foxtail, Giant plant response rating ([12]; 125 g ai/ha, postemergence): 0
- Plant response rating, Foxtail, Giant [12, 23]: 40
- Pigweed plant response rating ([13]; 125 g ai/ha, postemergence): 0
- Plant response rating, Pigweed [13, 23]: 0
- Ragweed plant response rating ([14]; 125 g ai/ha, postemergence): 0
- Plant response rating, Ragweed [14, 23]: 0
- Ryegrass, Italian plant response rating ([15]; 125 g ai/ha, postemergence): 0
- Plant response rating, Ryegrass, Italian [15, 23]: 0
- Wheat plant response rating ([16]; 125 g ai/ha, postemergence): 0
- Plant response rating, Wheat [16, 23]: 0
- Plant response rating, Barnyardgrass ([17]; 250 g ai/ha): 0
- Plant response rating, Ducksalad ([18]; 250 g ai/ha): 50
- Plant response rating, Rice ([19]; 250 g ai/ha): 0
- Plant response rating, Sedge, Umbrella ([20]; 250 g ai/ha): 0

Compound: O=C1NCC(c2cccc(OCC(F)F)c2)C1C(=O)Nc1ccccc1F (racemic) [Compound 387]
- Plant response rating, Kochia [1, 25]: 0
- Kochia plant response rating (0 to 100 scale) [1, 26]: 0
- Plant response rating, Barnyardgrass [2, 25]: 70
- Barnyardgrass plant response rating (0 to 100 scale) [2, 26]: 80
- Plant response rating, Foxtail, Giant [3, 25]: 70
- Foxtail, Giant plant response rating (0 to 100 scale) [3, 26]: 90
- Plant response rating, Pigweed [4, 25]: 0
- Pigweed plant response rating (0 to 100 scale) [4, 26]: 0
- Plant response rating, Ragweed [5, 25]: 0
- Ragweed plant response rating (0 to 100 scale) [5, 26]: 0
- Plant response rating, Ryegrass, Italian [6, 25]: 0
- Ryegrass, Italian plant response rating (0 to 100 scale) [6, 26]: 0
- Galium plant response rating ([7]; 125 g ai/ha, postemergence): 0
- Plant response rating, Galium [7, 27]: 0
- Kochia plant response rating ([8]; 125 g ai/ha, postemergence): 0
- Plant response rating, Kochia [8, 27]: 0
- Plant response rating, Barnyardgrass [9, 27]: 70
- Plant response rating, Barnyardgrass [9, 28]: 70
- Plant response rating, Blackgrass [10, 27]: 50
- Plant response rating, Blackgrass [10, 28]: 0
- Corn plant response rating ([11]; 125 g ai/ha, postemergence): 0
- Plant response rating, Corn [11, 27]: 0
- Foxtail, Giant plant response rating ([12]; 125 g ai/ha, postemergence): 50
- Plant response rating, Foxtail, Giant [12, 27]: 70
- Pigweed plant response rating ([13]; 125 g ai/ha, postemergence): 0
- Plant response rating, Pigweed [13, 27]: 0
- Ragweed plant response rating ([14]; 125 g ai/ha, postemergence): 0
- Plant response rating, Ragweed [14, 27]: 0
- Ryegrass, Italian plant response rating ([15]; 125 g ai/ha, postemergence): 0
- Plant response rating, Ryegrass, Italian [15, 27]: 0
- Wheat plant response rating ([16]; 125 g ai/ha, postemergence): 0
- Plant response rating, Wheat [16, 27]: 0
- Plant response rating, Barnyardgrass ([17]; 500 g ai/ha): 50
- Plant response rating, Ducksalad ([18]; 500 g ai/ha): 75
- Plant response rating, Rice ([19]; 500 g ai/ha): 20
- Plant response rating, Sedge, Umbrella ([20]; 500 g ai/ha): 0

Compound: O=C1NCC(c2cc(F)c(F)cc2F)C1C(=O)Nc1ccc(F)c(F)c1F (stereo not drawn) [Compound 614]
- Plant response rating, Kochia [1, 21]: 0
- Plant response rating, Kochia [1, 29]: 20
- Plant response rating, Barnyardgrass [2, 21]: 50
- Plant response rating, Barnyardgrass [2, 29]: 90
- Plant response rating, Foxtail, Giant [3, 21]: 90
- Plant response rating, Foxtail, Giant [3, 29]: 90
- Plant response rating, Pigweed [4, 21]: 0
- Plant response rating, Pigweed [4, 29]: 0
- Plant response rating, Ragweed [5, 21]: 0
- Plant response rating, Ragweed [5, 29]: 0
- Plant response rating, Ryegrass, Italian [6, 21]: 0
- Plant response rating, Ryegrass, Italian [6, 29]: 20
- Plant response rating, Galium [7, 30]: 30
- Plant response rating, Galium [7, 23]: 40
- Plant response rating, Kochia [8, 30]: 0
- Plant response rating, Kochia [8, 23]: 50
- Plant response rating, Barnyardgrass [9, 30]: 80
- Plant response rating, Barnyardgrass [9, 23]: 90
- Plant response rating, Blackgrass [10, 30]: 30
- Plant response rating, Blackgrass [10, 23]: 70
- Plant response rating, Corn [11, 30]: 0
- Plant response rating, Corn [11, 23]: 20
- Plant response rating, Foxtail, Giant [12, 30]: 80
- Plant response rating, Foxtail, Giant [12, 23]: 90
- Plant response rating, Pigweed [13, 30]: 0
- Plant response rating, Pigweed [13, 23]: 30
- Plant response rating, Ragweed [14, 30]: 0
- Plant response rating, Ragweed [14, 23]: 0
- Plant response rating, Ryegrass, Italian [15, 30]: 0
- Plant response rating, Ryegrass, Italian [15, 23]: 20
- Plant response rating, Wheat [16, 30]: 0
- Plant response rating, Wheat [16, 23]: 40
- Plant response rating, Barnyardgrass ([17]; 250 g ai/ha): 65
- Plant response rating, Ducksalad ([18]; 250 g ai/ha): 100
- Plant response rating, Rice ([19]; 250 g ai/ha): 10
- Plant response rating, Sedge, Umbrella ([20]; 250 g ai/ha): 0
